In patent US11339171B2, “MDM2 inhibitors” (Gan & Lee Pharmaceuticals, priority 2017, dated 2022):

Molecular target: T1, MDM2 (Homo sapiens, UniProt Q00987)
T1 construct: made in house
Assay: Inhibition test of MDM2-P53 (GST-MDM2, Biotin-P53, Anti-GST-Tb, SA-XL665)
Format: binding
Conditions: for inhibitory effect on MDM2 compared with positive control compound HDM201: labels are Example numbers, the compounds with S-configuration are meant
How it was run: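 Binding was measured by TR-FRET with GST-MDM2 at 4 nM final in PBS with 0.1% BSA, 5 mM DTT and 1 mM AEBSF. Compounds were tested as twelve-point 5-fold dilutions and incubated with the detection mix for 90 min at 25 °C with shaking before plate-reader reading and curve fitting.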

T1 sequence (Q00987 whole entry): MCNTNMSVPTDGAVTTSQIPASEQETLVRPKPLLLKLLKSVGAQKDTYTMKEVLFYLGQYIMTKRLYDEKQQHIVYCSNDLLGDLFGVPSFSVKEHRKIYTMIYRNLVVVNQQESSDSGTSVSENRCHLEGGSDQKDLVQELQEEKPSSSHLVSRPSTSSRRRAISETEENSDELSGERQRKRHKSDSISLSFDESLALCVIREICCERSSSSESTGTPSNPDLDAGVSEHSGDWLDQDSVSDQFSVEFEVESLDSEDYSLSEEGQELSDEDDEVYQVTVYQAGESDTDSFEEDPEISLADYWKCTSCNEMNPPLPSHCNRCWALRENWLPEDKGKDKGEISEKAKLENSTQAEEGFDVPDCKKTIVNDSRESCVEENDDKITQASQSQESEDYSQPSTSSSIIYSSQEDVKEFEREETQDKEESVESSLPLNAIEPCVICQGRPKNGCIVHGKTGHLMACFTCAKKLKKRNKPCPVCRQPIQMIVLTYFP

Row | SMILES | inhibitory effect on MDM2 compared with positive control compound HDM201 | IC50 [nM]
1 | COc1ncc(-c2nc3c(n2C(C)C)C2(C(=O)Nc4cc(Cl)ccc42)N(c2ccc(OC)c(Cl)c2)C3=O)c(OC)n1 (stereo not drawn) [Example 48, 6-chloro-5′-(3-chloro-4-methoxyphenyl)-2′-(2,4-dimethoxypyrimidin-5-yl)-3′-isopropyl-3′H-spiro[dihydroindole-3,4′-pyrrolo[3,4-d]imidazole]-2,6′(5′H)-dione] | better | –
2 | CCOc1cc(OC)c(-c2nc3c(n2C(C)C)[C@]2(C(=O)Nc4cc(Cl)ccc42)N(c2cc(F)cc(Cl)c2)C3=O)cn1 [Example R-139, (R)-6-chloro-5′-(3-chloro-5-fluorophenyl)-2′-(6-ethoxy-4-methoxypyridin-3-yl)-3′-isopropyl-3′H-spiro[dihydroindole-3,4′-pyrrolo[3,4-d]imidazole]-2,6′(5′H)-dione] | – | 342
3 | COc1ccc(-c2nc3c(n2C(C)C)[C@]2(C(=O)Nc4cc(Cl)ccc42)N(c2cc(Cl)ccc2C)C3=O)cc1 [Example R-64, (R)-6-chloro-5′-(5-chloro-2-methylphenyl)-3′-isopropyl-2′-(4-methoxyphenyl)-3′H-spiro[dihydroindole-3,4′-pyrrolo[3,4-d]imidazole]-2,6′(5′H)-dione] | – | 1020
4 | COc1nc(OCCF)ncc1-c1nc2c(n1C(C)C)[C@]1(C(=O)Nc3cc(Cl)ccc31)N(c1cc(Cl)cnc1C)C2=O [Example R-170, (R)-6-chloro-5′-(5-chloro-2-methylpyridin-3-yl)-2′-(2-(2-fluoroethoxy)-4-methoxypyrimidin-5-yl)-3′-isopropyl-3′H-spiro[dihydroindole-3,4′-pyrrolo[3,4-d]imidazole]-2,6′(5′H)-dione] | – | 235
5 | COc1cc(OC(C)C)ncc1-c1nc2c(n1C(C)C)[C@]1(C(=O)Nc3cc(Cl)ccc31)N(c1cccc(Cl)c1)C2=O [Example R-95, (R)-6-chloro-5′-(3-chlorophenyl)-2′-(6-isopropoxy-4-methoxypyridin-3-yl)-3′-isopropyl-3′H-spiro[dihydroindole-3,4′-pyrrolo[3,4-d]imidazole]-2,6′(5′H)-dione] | – | 1670
6 | COc1cc(C#N)ccc1-c1nc2c(n1C(C)C)[C@]1(C(=O)Nc3cc(Cl)ccc31)N(c1cccc(Cl)c1)C2=O [Example R-128, (R)-4-(6-chloro-5′-(3-chlorophenyl)-3′-isopropyl-2,6′-dioxo-5′,6′-dihydro-3′H-spiro[dihydroindole-3,4′-pyrrolo[3,4-d]imidazole]-2′-yl)-3-methoxybenzonitrile] | – | 612
7 | CCc1ccccc1-c1nc2c(n1C(C)C)[C@]1(C(=O)Nc3cc(Cl)ccc31)N(c1cc(Cl)ccc1C)C2=O [Example R-7, (R)-6-chloro-5′-(5-chloro-2-methylphenyl)-2′-(2-ethylphenyl)-3′-isopropylisopropyl-3′H-spiro[dihydroindole-3,4′-pyrrolo[3,4-d]imidazole]-2,6′(5′H)-dione] | – | 36000
8 | COc1ccc(-c2nc3c(n2C(C)C)C2(C(=O)Nc4cc(Cl)ccc42)N(c2cc(Cl)c(=O)n(C)c2)C3=O)c(OC)c1 (stereo not drawn) [Example 52, 6-chloro-5′-(5-chloro-1-methyl-6-oxo-1,6-dihydropyridin-3-yl)-2′-(2,4-dimethoxyphenyl)-3′-isopropyl-3′H-spiro[dihydroindole-3,4′-pyrrolo[3,4-d]imidazole]-2,6′(5′H)-dione] | better | –
9 | COc1nc(N2CCC2)ncc1-c1nc2c(n1C(C)C)[C@]1(C(=O)Nc3cc(Cl)ccc31)N(c1cc(Cl)ccc1C)C2=O [Example R-117, (R)-2′-(2-(12zetidine-1-yl)-4-methoxypyrimidin-5-yl)-6-chloro-5′-(5-chloro-2-methylphenyl)-3′-isopropyl-3′H-spiro[dihydroindole-3,4′-pyrrolo[3,4-d]imidazole]-2,6′(5′ H)-dione] | – | 233
10 | COc1nc(C2CC2)ncc1-c1nc2c(n1C(C)C)[C@]1(C(=O)Nc3cc(Cl)ccc31)N(c1cccc(Cl)c1)C2=O [Example R-122, (R)-6-chloro-5′-(3-chlorophenyl)-2′-(2-cyclopropyl-4-methoxypyrimidin-5-yl)-3′-isopropyl-3′H-spiro[dihydroindole-3,4′-pyrrolo[3,4-d]imidazole]-2,6′(5′H)-dione] | – | 794
11 | COc1cc(OC(C)C)ncc1-c1nc2c(n1C(C)C)C1(C(=O)Nc3cc(Cl)ccc31)N(c1cccc(Cl)c1)C2=O (stereo not drawn) [Example 95, 6-chloro-5′-(3-chlorophenyl)-2′-(6-isopropoxy-4-methoxypyridin-3-yl)-3′-isopropyl-3′H-spiro[dihydroindole-3,4′-pyrrolo[3,4-d]imidazole]-2,6′(5′H)-dione] | better | –
12 | COc1cc(OC(F)F)ncc1-c1nc2c(n1C(C)C)C1(C(=O)Nc3cc(Cl)ccc31)N(c1cc(Cl)ccc1C)C2=O (stereo not drawn) [Example 150, 6-chloro-5′-(5-chloro-2-methylphenyl)-2′-(6-(difluoromethoxy)-4-methoxypyridin-3-yl)-3′-isopropyl-3′H-spiro[dihydroindole-3,4′-pyrrolo[3,4-d]imidazole]-2,6′(5′H)-dione] | better | –
13 | COc1cc(C(N)=O)ccc1-c1nc2c(n1C(C)C)[C@]1(C(=O)Nc3cc(Cl)ccc31)N(c1cc(Cl)ccc1C)C2=O [Example R-77, (R)-4-(6-chloro-5′-(5-chloro-2-methylphenyl)-3′-isopropyl-2,6′-dioxo-5′,6′-dihydro-3′H-spiro[dihydroindole-3,4′-pyrrolo[3,4-d]imidazole]-2′-yl)-3-methoxybenzamide] | – | 139
14 | COc1ccc(-c2nc3c(n2C(C)C)[C@]2(C(=O)Nc4cc(Cl)ccc42)N(c2cc(Cl)cn(C)c2=O)C3=O)c(OC)c1 [Example R-39, (R)-6-chloro-5′-(5-chloro-1-methyl-2-oxo-1,2-dihydropyridin-3-yl)-2′-(2,4-dimethoxyphenyl)-3′-isopropyl-3′H-spiro[dihydroindole-3,4′-pyrrolo[3,4-d]imidazole]-2,6′(5′H)-dione] | – | 1850
15 | COc1ncc(-c2nc3c(n2C(C)C)C2(C(=O)Nc4cc(Cl)ccc42)N(c2cc(Cl)ccc2F)C3=O)c(OC)n1 (stereo not drawn) [Example 44, 6-chloro-5′-(5-chloro-2-fluorophenyl)-2′-(2,4-dimethoxypyrimidin-5-yl)-3′-isopropyl-3′H-spiro[dihydroindole-3,4′-pyrrolo[3,4-d]imidazole]-2,6′(5′H)-dione] | better | –
16 | COc1cc(C(F)(F)F)ncc1-c1nc2c(n1C(C)C)[C@]1(C(=O)Nc3cc(Cl)ccc31)N(c1cc(Cl)ccc1C)C2=O [Example R-138, (R)-6-chloro-5′-(5-chloro-2-methylphenyl)-3′-isopropyl-2′-(4-methoxy-6-(trifluoromethyl)pyridin-3-yl)-3′H-spiro[dihydroindole-3,4′-pyrrolo[3,4-d]imidazole]-2,6′(5′H)-dione] | – | 132
17 | COc1ccc(N2C(=O)c3nc(-c4ccccc4OC)n(C(C)C)c3[C@]23C(=O)Nc2cc(Cl)ccc23)cc1Cl [Example R-63, (R)-6-chloro-5′-(3-chloro-4-methoxyphenyl)-3′-isopropyl-2′-(2-methoxyphenyl)-3′H-spiro[dihydroindole-3,4′-pyrrolo[3,4-d]imidazole]-2,6′(5′H)-dione] | – | 537
18 | COc1cc(OC)c(-c2nc3c(n2C(C)C)[C@]2(C(=O)Nc4cc(Cl)ccc42)N(c2cc(Cl)ccc2F)C3=O)cn1 [Example R-133, (R)-6-chloro-5′-(5-chloro-2-fluorophenyl)-2′-(4,6-dimethoxypyridin-3-yl)-3′-isopropyl-3′H-spiro[dihydroindole-3,4′-pyrrolo[3,4-d]imidazole]-2,6′(5′H)-dione] | – | 1110
19 | COc1ncc(-c2nc3c(n2C(C)C)[C@@]2(C(=O)Nc4cc(Cl)ccc42)N(c2cc(Cl)ccc2C#N)C3=O)c(OC)n1 [Example S-151, (S)-4-chloro-2-(6-chloro-2′-(2,4-dimethoxypyrimidin-5-yl)-3′-isopropyl-2,6′-dioxo-3′,6′-dihydro-5′H-spiro[dihydroindole-3,4′-pyrrolo[3,4-d]imidazole]-5′-yl)benzonitrile] | – | 1410
20 | COc1c(F)cccc1-c1nc2c(n1C(C)C)[C@]1(C(=O)Nc3cc(Cl)ccc31)N(c1cc(Cl)ccc1C)C2=O [Example R-76, (R)-6-chloro-5′-(5-chloro-2-methylphenyl)-2′-(3-fluoro-2-methoxyphenyl)-3′-isopropyl-3′H-spiro[dihydroindole-3,4′-pyrrolo[3,4-d]imidazole]-2,6′(5′H)-dione] | – | 579
21 | CNC(=O)c1ccc(OC)c(-c2nc3c(n2C(C)C)C2(C(=O)Nc4cc(Cl)ccc42)N(c2cc(Cl)ccc2C)C3=O)c1 (stereo not drawn) [Example 21, 3-(6-chloro-5′-(5-chloro-2-methylphenyl)-3′-isopropyl-2,6′-dioxo-5′,6′-dihydro-3′H-spiro[dihydroindole-3,4′-pyrrolo[3,4-d]imidazole]-2′-yl)-4-methoxy-N-methylbenzamide] | better | –
22 | COc1cc(C(F)(F)F)ccc1-c1nc2c(n1C(C)C)[C@]1(C(=O)Nc3cc(Cl)ccc31)N(c1cccc(Cl)c1)C2=O [Example R-129, (R)-6-chloro-5′-(3-chlorophenyl)-3′-isopropyl-2′-(2-methoxy-4-(trifluoromethyl)phenyl)-3′H-spiro[dihydroindole-3,4′-pyrrolo[3,4-d]imidazole]-2,6′(5′H)-dione] | – | 149
23 | COc1cccc(OC)c1-c1nc2c(n1C(C)C)C1(C(=O)Nc3cc(Cl)ccc31)N(c1cc(Cl)ccc1C)C2=O (stereo not drawn) [Example 79, 6-chloro-5′-(5-chloro-2-methylphenyl)-2′-(2,6-dimethoxyphenyl)-3′-isopropyl-3′H-spiro[dihydroindole-3,4′-pyrrolo[3,4-d]imidazole]-2,6′(5′H)-dione] | better | –
24 | CCOc1ccc(-c2nc3c(n2C(C)C)[C@]2(C(=O)Nc4cc(Cl)ccc42)N(c2cc(Cl)ccc2F)C3=O)c(OC)c1 [Example R-94, (R)-6-chloro-5′-(5-chloro-2-fluorophenyl)-2′-(4-ethoxy-2-methoxyphenyl)-3′-isopropyl-3′H-spiro[dihydroindole-3,4′-pyrrolo[3,4-d]imidazole]-2,6′(5′H)-dione] | – | 840
